Experimental data as given in paper PMC6435658, “Investigation into the Molecular Mechanisms underlying the Anti-proliferative and Anti-tumorigenesis activities of Diosmetin against HCT-116 Human Colorectal Cancer” (Scientific Reports, 2019).
In brackets after ≈: the same amount, converted by molar mass.

Experiments:
[1] = system: HCC; parameters: method as in PMID 19424633, PMID 27176768, PMID 26847170, PMID 20183323; conditions: 24 h treatment, ref [10],[13],[15],[47]; cited from earlier work
[2] = system: HCT-116 cells; experiment: MTT cytotoxicity assay, HCT-116; type: cell-based, human; conditions: for IC50: Homo sapiens, MTT
Method: Cytotoxicity property of Dis against HCT-116 and CCD-841 cells were measured by MTT assay as described by Mossman[77]. Briefly, cells were treated with different concentration of Dis and 5-Fu (positive control) with serial dilution factor of 2 for 8 concentrations in 96 well-plate for different time points (24 h, 48 h and 72 h). Subsequently at the end of each time point 20 µl of MTT (5 mg/ml, Affymetrix,Cleveland, OH, USA) were added to each well followed by 4 h incubation. The solutions were aspirated after 4 h and 100 µl of DMSO were added to each well. Absorbance for each well was read at 570 nm as measured by using microplate reader (Tecan Infinite multimode, Männedorf, Switzerland). Cytotoxicity (cell death) was measured by using the following formula: Celldeath(%)=sampleOD−controlOD/controlOD100
This assay was performed in triplicates in three independent experiments. The cytotoxicity property of Dis was presented as IC50 value.

[3] = system: HCT-116 cells; experiment: NanoString nCounter gene expression profiling; type: cell-based, human
Method: Gene expressions of the cancer canonical pathways were measured by NanoString nCounter. HCT-116 cells were treated with Dis for 48 h and total RNA were extracted by using RNeasy Mini Kit (QiAgen, Hilden, Germany) according to the manufacture’s protocol. Concentrations of RNA were checked through NanoDrop 2000C (Thermo Scientific™, Pittsburgh, PA, USA). Pancancer pathways panel on Nanostring nCounter system (Nanostring Technologies, Inc., Seattle, WA, USA) were used to investigate the gene expression profile of cancer pathways. A total of 770 genes were investigated and compared between Dis treated and untreated cells. The list of investigated genes is provided as supplementary data (Table S1). RNA was hybridized, purified and immobilized before being aligned on the nCounter cartridge and introduced to nCounter.
Digital Analyzer was utilized for data collection according to the manufacturer’s instruction. Briefly, RNA samples were added to the master mix contain hybridization buffer and reporter CodeSet. Capture ProbeSet was added to this mixture and introduced to pre-heated 65 °C thermal cycler for 16 h incubation. After removing the unbound probe, target/probe were immobilized and aligned on the nCounter Cartridge. nCounter digital analyzer was used to collect the nCounter cartridge data and data were analyzed using nSolver 3.0 analysis software. Significant genes were choose based on the false discovery rate (FDR) <0.05 and log2 fold change ≥ ± 0.5 supplementary data (Figure S1).

[4] = system: Colo205; parameters: method as in PMID 19424633, PMID 27176768, PMID 26847170, PMID 20183323; conditions: Colo205, 24 h treatment; ref [10],[13],[15],[47]; cited from earlier work
[5] = system: HCT-116 cells; experiment: Cell cycle analysis by flow cytometry; type: cell-based, human; conditions: HCT-116, 24 h, 48 h, 72 h
Method: Flow cytometry analysis was performed to determine any disruption during the cell cycle of HCT-116 cells in the presence of Dis. HCT-116at density of 2 × 10^6 cells were seeded and treated for 24 h, 48 h and 72 h in a 75 cm^2 flask. Negative control was treated with 0.02% DMSO. After fixation of the cells with 70% ethanol, cells were preserved in −20 °C overnight followed by washing and staining with 500 µl of PI/Rnase dye (BD Biosciences, San Jose, CA, USA) and incubated for 30 min. DNA content analysis was performed using BD FACSCanto II flow cytometer instrument and BD FACS Diva software (BD FACSCanto™II, San Jose, CA, USA). A total of 15,000 events per sample were recorded for analysis. ModFit LT version 3.0 software was used for analyzing the data.

[6] = system: MCF-10; parameters: method as in PMID 19424633, PMID 27176768, PMID 26847170, PMID 20183323; conditions: MCF-10 non-cancerous cells, 24 h; ref [10],[13],[15],[47]; cited from earlier work
[7] = system: HCT-116 cells; experiment: Annexin-V-FITC apoptosis assay; type: cell-based, human
Method: Inductions of early and late stages of apoptosis by Dis were investigated using Annexin-V-FITC assay according to the manufacturer’s instructions (BD Biosciences, San Jose, CA, USA). Briefly, 10^6 HCT-116 cells were seeded in 25 cm^2 flask followed by treatment with Dis for 24 h, 48 h and 72 h. Treated cells were harvested and washed twice with cold PBS and suspended in binding buffer followed by transferred of 10^5 cells to the 6 ml polystyrene round-bottom FACS tubes. Cells were incubated with 5 µl of PI and 5 µl of Annexin-V-FITC and introduced to the FACSCanto™II instrument (BD, San Jose, CA, USA).

COc1ccc(-c2cc(=O)c3c(O)cc(O)cc3o2)cc1O [Dis, Diosmetin]
IC50 [1]: 50 µg/mL (≈ 167 µM) | IC50 ([2]; HCT-116, 24 h): 5.56 ± 0.48 µg/mL (≈ 18.5 µM) | IC50 ([2]; HCT-116, 48 h): 3.58 ± 0.58 µg/mL (≈ 11.9 µM) | IC50 ([2]; HCT-116, 72 h): 3.41 ± 0.64 µg/mL (≈ 11.4 µM) | Selectivity Index (SI) ([2]; IC50 CCD-841 / IC50 HCT-116, 24 h): 42.53 | Selectivity Index (SI) ([2]; IC50 CCD-841 / IC50 HCT-116, 48 h): 14.51 | Selectivity Index (SI) ([2]; IC50 CCD-841 / IC50 HCT-116, 72 h): 11.88 | gene expression of NF-ƙB inhibitor (iƙb-α) ([3]; HCT-116, Dis treated): elevates | Log2 fold change, Fubp1 ([3]; gene Fubp1, HCT-116, Dis 48 h vs untreated): −0.5 | Log2 fold change, Prkar2b ([3]; gene Prkar2b, HCT-116, Dis 48 h vs untreated): −1.6 | Log2 fold change, bax ([3]; gene bax, HCT-116, Dis 48 h vs untreated): 0.5 | Log2 fold change, bmp8a ([3]; gene bmp8a, HCT-116, Dis 48 h vs untreated): −2.2 | Log2 fold change, ccna2 (cyclin A) ([3]; gene ccna2 (cyclin A), HCT-116, Dis 48 h vs untreated): −0.6 | Log2 fold change, ccnb1 (cyclin B) ([3]; gene ccnb1 (cyclin B), HCT-116, Dis 48 h vs untreated): −0.5 | Log2 fold change, cdc7 ([3]; gene cdc7, HCT-116, Dis 48 h vs untreated): −0.8 | Log2 fold change, cdc25 ([3]; gene cdc25, HCT-116, Dis 48 h vs untreated): −0.6 | Log2 fold change, cdkn1a (p21) ([3]; gene cdkn1a (p21), HCT-116, Dis 48 h vs untreated): 1.5 | Log2 fold change, fas ([3]; gene fas, HCT-116, Dis 48 h vs untreated): 0.8 | Log2 fold change, gadd45 ([3]; gene gadd45, HCT-116, Dis 48 h vs untreated): 0.8 | Log2 fold change, h2afx ([3]; gene h2afx, HCT-116, Dis 48 h vs untreated): −0.9 | Log2 fold change, h3f3a (h2a) ([3]; gene h3f3a (h2a), HCT-116, Dis 48 h vs untreated): −0.9 | Log2 fold change, hdac1 ([3]; gene hdac1, HCT-116, Dis 48 h vs untreated): −0.5 | Log2 fold change, hdac2 ([3]; gene hdac2, HCT-116, Dis 48 h vs untreated): −0.6 | Log2 fold change, hdac5 ([3]; gene hdac5, HCT-116, Dis 48 h vs untreated): −2.6 | Log2 fold change, hells ([3]; gene hells, HCT-116, Dis 48 h vs untreated): −0.6 | Log2 fold change, hist1h3b ([3]; gene hist1h3b, HCT-116, Dis 48 h vs untreated): −1.2 | Log2 fold change, hist1h3h ([3]; gene hist1h3h, HCT-116, Dis 48 h vs untreated): −1.5 | Log2 fold change, hspb1 (hsp27) ([3]; gene hspb1 (hsp27), HCT-116, Dis 48 h vs untreated): −2.2 | Log2 fold change, id1 ([3]; gene id1, HCT-116, Dis 48 h vs untreated): −0.5 | Log2 fold change, id2 ([3]; gene id2, HCT-116, Dis 48 h vs untreated): −2.0 | Log2 fold change, mad2l2 ([3]; gene mad2l2, HCT-116, Dis 48 h vs untreated): −0.6 | Log2 fold change, mcm2 ([3]; gene mcm2, HCT-116, Dis 48 h vs untreated): −0.6 | Log2 fold change, mcm4 ([3]; gene mcm4, HCT-116, Dis 48 h vs untreated): −0.6 | Log2 fold change, mcm7 ([3]; gene mcm7, HCT-116, Dis 48 h vs untreated): −0.6 | Log2 fold change, msh2 ([3]; gene msh2, HCT-116, Dis 48 h vs untreated): −0.7 | Log2 fold change, nbn ([3]; gene nbn, HCT-116, Dis 48 h vs untreated): −0.5 | Log2 fold change, pcna ([3]; gene pcna, HCT-116, Dis 48 h vs untreated): −0.6 | Log2 fold change, pole2 ([3]; gene pole2, HCT-116, Dis 48 h vs untreated): −1.4 | Log2 fold change, pttg2 ([3]; gene pttg2, HCT-116, Dis 48 h vs untreated): −0.9 | Log2 fold change, rad21 ([3]; gene rad21, HCT-116, Dis 48 h vs untreated): −0.8 | Log2 fold change, rbx1 ([3]; gene rbx1, HCT-116, Dis 48 h vs untreated): −1.2 | Log2 fold change, setd2 ([3]; gene setd2, HCT-116, Dis 48 h vs untreated): 0.7 | Log2 fold change, sfn (stratifin) ([3]; gene sfn (stratifin), HCT-116, Dis 48 h vs untreated): 0.6 | Log2 fold change, sin3 ([3]; gene sin3, HCT-116, Dis 48 h vs untreated): −0.5 | Log2 fold change, smad9 ([3]; gene smad9, HCT-116, Dis 48 h vs untreated): −2.7 | Log2 fold change, smc3 ([3]; gene smc3, HCT-116, Dis 48 h vs untreated): −0.7 | Log2 fold change, stmn1 ([3]; gene stmn1, HCT-116, Dis 48 h vs untreated): −1.5 | Log2 fold change, tnfrsf10b ([3]; gene tnfrsf10b, HCT-116, Dis 48 h vs untreated): 0.8 | Log2 fold change, ttk ([3]; gene ttk, HCT-116, Dis 48 h vs untreated): −1.0 | Log2 fold change, ubb ([3]; gene ubb, HCT-116, Dis 48 h vs untreated): −0.9 | IC50 [4]: 29 µg/mL (≈ 96.6 µM) | cell cycle arrest [5]: arrested in G2/M phase | IC50 [6]: 30 µg/mL (≈ 99.9 µM) | Late apoptosis ([7]; HCT-116, 24 h): 18 ± 3.6% | Late apoptosis ([7]; HCT-116, 48 h): 26.3 ± 3.6% | Late apoptosis ([7]; HCT-116, 72 h): 53.15 ± 4.35% | population of cells in early apoptosis ([7]; HCT-116, 72 h of treatment): 7.7 ± 0%
